From patent US12291518B2, “Thyroid hormone receptor agonists and use thereof” (Eccogene Inc., priority 2020, dated 2025) come the findings set out here.

One test deals with T1, THR beta-LBD (Homo sapiens, UniProt P10828).
T1 construct: THR beta-LBD (the final concentration is 0.5 nM) was added to the 384-well assay plate; purchased Invitrogen PV4686
T1 sequence (P10828 217-461 limits assumed): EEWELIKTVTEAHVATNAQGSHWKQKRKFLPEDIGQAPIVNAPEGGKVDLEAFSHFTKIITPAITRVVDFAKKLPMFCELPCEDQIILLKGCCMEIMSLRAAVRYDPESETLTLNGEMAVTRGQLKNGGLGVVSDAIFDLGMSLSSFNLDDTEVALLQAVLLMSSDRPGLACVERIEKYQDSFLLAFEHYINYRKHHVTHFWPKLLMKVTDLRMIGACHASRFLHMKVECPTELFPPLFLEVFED
The test is described as follows: THR-β Coactivator Peptide Recruitment Assay (LanthaScreen TR-FRET). It is filed as biochemical. The note with it: TR-FRET coactivator recruitment, THR beta-LBD 0.5 nM; for EC50: read-out: THRβ EC50. An outline of the steps:
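Agonist-driven coactivator recruitment read as a 520/495 nm TR-FRET emission ratio after 2 h at room temperature. Final concentrations: THR beta-LBD 0.5 nM, fluorescein-SRC2-2 peptide 0.1 nM, terbium anti-GST antibody 2 nM. EC50 from four-parameter dose-response fitting.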
A general note: TR-FRET usually uses a lanthanide donor and a delayed reading to cut background.

For a further test, the target named is T2, THR alpha-LBD (Homo sapiens, UniProt P10827).
T2 construct: except that THR alpha-LBD of a final concentration 0.25 nM was used; purchased Invitrogen PV4687
The test is described as follows: THR-α Coactivator Peptide Recruitment Assay (LanthaScreen TR-FRET). The conditions noted are these: TR-FRET coactivator recruitment, THR alpha-LBD 0.25 nM; for EC50: read-out: THRα EC50. The test is classed as biochemical. An outline of the steps: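 TR-FRET coactivator recruitment with THR alpha-LBD at 0.25 nM final, Fluorescein-SRC2-2 peptide 0.1 nM and Tb-labeled anti-GST antibody 2 nM; 2 h incubation at room temperature. 520/495 nm emission ratio fitted to a four-parameter sigmoidal curve to give EC50.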

T2 sequence (P10827 163-410 isoform P10827-2 limits assumed, other chains not shown): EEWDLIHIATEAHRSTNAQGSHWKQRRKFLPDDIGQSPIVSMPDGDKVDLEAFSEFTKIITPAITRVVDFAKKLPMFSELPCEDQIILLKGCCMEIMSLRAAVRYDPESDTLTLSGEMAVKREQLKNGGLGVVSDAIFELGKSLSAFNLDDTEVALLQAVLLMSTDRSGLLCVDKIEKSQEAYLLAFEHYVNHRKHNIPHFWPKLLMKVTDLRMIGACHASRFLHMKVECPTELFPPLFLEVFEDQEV

As a reminder, the EC50 is the concentration at which the effect is half-maximal. On to `O=C(CNS(=O)(=O)c1cc(Oc2c(Cl)cc(-n3nc(C(F)F)c(=O)[nH]c3=O)cc2Cl)ccc1O)NC1CCC1` [Compound 62, N-cyclobutyl-2-((5-(2,6-dichloro-4-(6-(difluoromethyl)-3,5-dioxo-4,5-dihydro-1,2,4-triazin-2(3H)-yl)phenoxy)-2-hydroxyphenyl)sulfonamido)acetamide], for which, at THR beta-LBD, the “THRβ Emax” value is “B (75~90)” and the EC50 was in the range of 2 to 20 nM. On THR alpha-LBD, the “THRα Emax” value is “B (40~85)” and the EC50 was 200 to 1000 nM.

As for `O=C(NC1CC1)C1(NS(=O)(=O)c2cc(Oc3c(Cl)cc(-n4nc(C(F)F)c(=O)[nH]c4=O)cc3Cl)ncc2O)CCC1` [Compound 121, N-cyclopropyl-1-((2-(2,6-dichloro-4-(6-(difluoromethyl)-3,5-dioxo-4,5-dihydro-1,2,4-triazin-2(3H)-yl)phenoxy)-5-hydroxypyridine)-4-sulfonamido)cyclobutane-1-carboxamide], on THR beta-LBD, the “THRβ Emax” value is recorded as “C (<75)” and the EC50 was more than 100 nM. Also, on THR alpha-LBD, the “THRα Emax” value is on record as “C (<40)” and the EC50 was more than 1000 nM.

`CN1CC(NS(=O)(=O)c2cc(Oc3c(Cl)cc(-n4nc(C(F)F)c(=O)[nH]c4=O)cc3Cl)ncc2O)C1` [Compound 169, 2-(2,6-dichloro-4-(6-(difluoromethyl)-3,5-dioxo-4,5-dihydro-1,2,4-triazin-2(3H)-yl)phenoxy)-5-hydroxy-N-(1-methylazetidin-3-yl)pyridine-4-sulfonamide]: on THR beta-LBD, the “THRβ Emax” value was “C (<75)” and the EC50 was more than 100 nM. On THR alpha-LBD, the “THRα Emax” value was “C (<40)” and the EC50 was more than 1000 nM.

As for `O=c1[nH]c(=O)n(-c2cc(Cl)c(Oc3cc(S(=O)(=O)NC4CS(=O)(=O)C4)c(O)cn3)c(Cl)c2)nc1C(F)F` [Compound 148, 2-[2,6-dichloro-4-[6-(difluoromethyl)-3,5-dioxo-1,2,4-triazin-2-yl]-phenoxy]-N-(1,1-dioxothietan-3-yl)-5-hydroxy-pyridine-4-sulfonamide], on THR beta-LBD, the “THRβ Emax” value is given as “B (75~90)” and the EC50 lay within 2 to 20 nM. In addition, at THR alpha-LBD, the “THRα Emax” value is given as “A (85~110)” and the EC50 was in the range of 2 to 200 nM.

On to `O=c1[nH]c(=O)n(-c2cc(Cl)c(Oc3ccc(O)c(S(=O)(=O)NCC4(O)CC4)c3)c(Cl)c2)nc1C(F)F` [Compound 80, 5-(2,6-dichloro-4-(6-(difluoromethyl)-3,5-dioxo-4,5-dihydro-1,2,4-triazin-2(3H)-yl)phenoxy)-2-hydroxy-N-((1-hydroxycyclopropyl)methyl)benzenesulfonamide], for which, on THR beta-LBD, the “THRβ Emax” value is reported as “A (90~110)” and the EC50 is 2 to 20 nM. On THR alpha-LBD, the “THRα Emax” value is “A (85~110)” and the EC50 fell in the range of 2 to 200 nM.

As for `O=c1[nH]c(=O)n(-c2cc(Cl)c(Oc3cc(S(=O)(=O)N[C@H]4CCOC4)c(O)cn3)c(Cl)c2)nc1C(F)F` [Compound 104, (S)-2-(2,6-dichloro-4-(6-(difluoromethyl)-3,5-dioxo-4,5-dihydro-1,2,4-triazin-2(3H)-yl)phenoxy)-5-hydroxy-N-(tetrahydrofuran-3-yl)pyridine-4-sulfonamide], on THR beta-LBD, the “THRβ Emax” value was “B (75~90)” and the EC50 was less than 2 nM. For the same compound, at THR alpha-LBD, the “THRα Emax” value is reported as “B (40~85)” and the EC50 was 2 to 200 nM.

Turning to `O=C(NC1CCCC1)C1(NS(=O)(=O)c2cc(Oc3c(Cl)cc(-n4nc(C(F)F)c(=O)[nH]c4=O)cc3Cl)ccc2O)CC1` [Compound 90, N-cyclopentyl-1-((5-(2,6-dichloro-4-(6-(difluoromethyl)-3,5-dioxo-4,5-dihydro-1,2,4-triazin-2(3H)-yl)phenoxy)-2-hydroxyphenyl)sulfonamido)cyclopropane-1-carboxamide], on THR beta-LBD, the “THRβ Emax” value is “B (75~90)” and the EC50 was less than 2 nM. In addition, at THR alpha-LBD, the “THRα Emax” value is “A (85~110)” and the EC50 fell in the range of 2 to 200 nM.

On to `CNS(=O)(=O)c1cc(Oc2c(Cl)cc(-n3nc(C#N)c(=O)[nH]c3=O)cc2Cl)ncc1O` [Compound 102, 2-(2,6-dichloro-4-(6-cyano-3,5-dioxo-4,5-dihydro-1,2,4-triazin-2(3H)-yl)phenoxy)-5-hydroxy-N-methylpyridine-4-sulfonamide], for which, on THR beta-LBD, the “THRβ Emax” value was “B (75~90)” and the EC50 was 2 to 20 nM. On THR alpha-LBD, the “THRα Emax” value is given as “A (85~110)” and the EC50 lay within 200 to 1000 nM.

Take `O=C(NCC(F)F)C1(NS(=O)(=O)c2cc(Oc3c(Cl)cc(-n4nc(C(F)F)c(=O)[nH]c4=O)cc3Cl)ccc2O)CC1` [Compound 87, 1-[[5-[2,6-dichloro-4-[6-(difluoromethyl)-3,5-dioxo-1,2,4-triazin-2-yl]phenoxy]-2-hydroxy-phenyl]sulfonylamino]-N-(2,2-difluoroethyl) cyclopropanecarboxamide]: at THR beta-LBD, the “THRβ Emax” value is recorded as “B (75~90)” and the EC50 is less than 2 nM. In addition, on THR alpha-LBD, the “THRα Emax” value was “B (40~85)” and the EC50 fell in the range of 200 to 1000 nM.

Turning to `O=c1[nH]c(=O)n(-c2cc(Cl)c(Oc3cc(S(=O)(=O)NC4CCCC4)c(O)cn3)c(Cl)c2)nc1C(F)F` [Compound 124, N-cyclopentyl-2-(2,6-dichloro-4-(6-(difluoromethyl)-3,5-dioxo-4,5-dihydro-1,2,4-triazin-2(3H)-yl)phenoxy)-5-hydroxypyridine-4-sulfonamide], at THR beta-LBD, the “THRβ Emax” value is given as “B (75~90)” and the EC50 is less than 2 nM. Besides, on THR alpha-LBD, the “THRα Emax” value is on record as “B (40~85)” and the EC50 lay within 2 to 200 nM.

Regarding `O=c1[nH]c(=O)n(-c2cc(Cl)c(Oc3cc(S(=O)(=O)NC4CC4)c(O)cn3)c(Cl)c2)nc1C(F)F` [Compound 131, N-cyclopropyl-2-(2,6-dichloro-4-(6-(difluoromethyl)-3,5-dioxo-4,5-dihydro-1,2,4-triazin-2(3H)-yl)phenoxy)-5-hydroxypyridine-4-sulfonamide], on THR beta-LBD, the “THRβ Emax” value is given as “A (90~110)” and the EC50 is less than 2 nM. On THR alpha-LBD, the “THRα Emax” value is given as “A (85~110)” and the EC50 fell in the range of 2 to 200 nM.

Turning to `CN([C@H]1C[C@H](O)C1)S(=O)(=O)c1cc(Oc2c(Cl)cc(-n3nc(C(F)F)c(=O)[nH]c3=O)cc2Cl)ccc1O` [Compound 99], at THR beta-LBD, the “THRβ Emax” value was “B (75~90)” and the 50% effective concentration (EC50) lay within 2 to 20 nM. At THR alpha-LBD, the “THRα Emax” value was “A (85~110)” and the EC50 lay within 2 to 200 nM.

`Cc1cc(-n2nc(C(F)F)c(=O)[nH]c2=O)cc(Cl)c1Oc1cc(S(=O)(=O)N[C@H]2C[C@H](O)C2)c(O)cn1` [Compound 167, 2-[2-chloro-4-[6-(difluoromethyl)-3,5-dioxo-1,2,4-triazin-2-yl]-6-methyl-phenoxy]-5-hydroxy-N-(3-hydroxycyclobutyl)pyridine-4-sulfonamide]: at THR beta-LBD, the “THRβ Emax” value is recorded as “A (90~110)” and the EC50 was in the range of 2 to 20 nM. Besides, at THR alpha-LBD, the “THRα Emax” value was “A (85~110)” and the EC50 fell in the range of 200 to 1000 nM.

Regarding `Cc1nn(-c2cc(Cl)c(Oc3cc(S(=O)(=O)N[C@@H]4CCOC4)c(O)cn3)c(Cl)c2)c(=O)[nH]c1=O` [Compound 163, (R)-2-(2,6-dichloro-4-(6-methyl-3,5-dioxo-4,5-dihydro-1,2,4-triazin-2(3H)-yl)phenoxy)-5-hydroxy-N-(tetrahydrofuran-3-yl)pyridine-4-sulfonamide], at THR beta-LBD, the “THRβ Emax” value is given as “B (75~90)” and the EC50 is 20 to 100 nM. Moreover, at THR alpha-LBD, the “THRα Emax” value is on record as “B (40~85)” and the EC50 is 200 to 1000 nM.

As to `O=c1[nH]c(=O)n(-c2cc(Cl)c(Oc3ccc(O)c(S(=O)(=O)N4CCC(F)(F)CC4)c3)c(Cl)c2)nc1C(F)F` [Compound 27, 2-[3,5-dichloro-4-[3-[(4,4-difluoro-1-piperidyl)sulfonyl]-4-hydroxy-phenoxy]phenyl]-6-(difluoromethyl)-1,2,4-triazine-3,5-dione], on THR beta-LBD, the “THRβ Emax” value is listed as “B (75~90)” and the EC50 is less than 2 nM. At THR alpha-LBD, the “THRα Emax” value is given as “A (85~110)” and the EC50 was less than 2 nM.

`CN(C)S(=O)(=O)c1cc(Oc2c(Cl)cc(-n3nc(C(F)F)c(=O)[nH]c3=O)cc2Cl)ncc1O` [Compound 113, 2-(2,6-dichloro-4-(6-(difluoromethyl)-3,5-dioxo-4,5-dihydro-1,2,4-triazin-2(3H)-yl)phenoxy)-5-hydroxy-N,N-dimethylpyridine-4-sulfonamide]: at THR beta-LBD, the “THRβ Emax” value is given as “B (75~90)” and the half-maximal effective concentration (EC50) was less than 2 nM. On THR alpha-LBD, the “THRα Emax” value was “A (85~110)” and the EC50 lay within 2 to 200 nM.
